For assay [1], the system named is REL-A (p65) nuclear translocation in HeLa cells. Kind of assay: NIK RelA Translocation Assay (classical NF-kB signaling). The assay is classed as cell-based. The following applies: Homo sapiens; HeLa cells, compounds 4.5 hours, 10 ng/mL TNF-α 30 minutes; read-out: inhibitory value (IC50) for NIK RelA Translocation Assay. On the procedure: (§1) (2) A second set of cell assay was used to define the selectivity of NIK inhibitors toward inhibition of classical vs. non-classical NF-kB signaling and rely on quantification of the nuclear translocation of p52 (NF-kB2) and REL-A (p65) using high content cellular imaging. For the p52 (non-classical NF-kB signaling) nuclear translocation assay, HeLa cells were treated with different concentrations of compounds (0.2% DMSO final) in medium containing 10% fetal bovine serum and then stimulated with 100 ng/mL of an anti-lymphotoxin beta receptor antibody (R&D Systems) for 5 hours. In the REL-A nuclear translocation assay, HeLa cells were incubated with compounds (0.2% DMSO final) for 4.5 hours in medium containing 10% fetal bovine serum before stimulating them with 10 ng/mL tumor necrosis factor (TNF)-α (R&D Systems) for 30 minutes. Cells were fixed with 4% paraformaldehyde, permeabilized by adding 0.1% Triton X-100 in phosphate buffered saline, and then incubated with either 2 ug/mL anti-p52 antibody (Millipore) or 400 ng/mL anti-REL-A (p65) antibody (Santa Cruz Biotechnology). Finally, the cells were incubated with an Alexa488-labeled secondary antibody (Invitrogen) and DRAQ5 DNA stain (Biostatus). Imaging was carried out using an Opera reader (Perkin Elmer) and data are analyzed with the aid of Acapella software (Perkin Elmer). The p52 or REL-A translocation into the nucleus was quantified by the ratio of the nuclear to cytoplasmic signal intensity. The concentration of inhibitor required for 50% inhibition (IC50 values) in these cell assays were derived from the plots of signal vs. inhibitor concentration. The compounds in listed in Table 1 have the corresponding inhibitory value (IC50 in micromolar) for NIK p52 Translocation Assay (values for compounds are presented in the same order as found in Table 1, and “na” means the data for this assay is to be determined): 0.326, 0.33, na, na, na, 0.218, 0.07, na, na, na, 0.129, 7.6, 0.077, 3.4, na, 0.518, na, 0.059, 0.514, 0.127, na, na, 0.010, na, na, 0.313, 0.275, na, 0.0727, na, na, na, na, na, na, 0.194, na, 6.4, 0.22, 0.346, na, na, na and na, na, na, na, na, na, 0.447, na, 0.089, 0.479, 0.489, 0.243, 0.747, 1, na, 1.9, 0.552, 2.1, na. na, na, na, na and na.
The compounds in listed in Table 1 has the corresponding inhibitory value (IC50 in micromolar) for NIK RelA Translocation Assay (values for compounds are presented in the same order as found in Table 1): 0.326, 0.33, na, na, na, 0.218, 0.07, na, na, na, na, na, 0.129, 7.6, 0.077, 3.4, na, 0.518, na, 0.059, 0.514, 0.127, na, na, 0.010, na, na, 0.313, 0.275, na, na, 0.0727, na, na, na, na, na, na, 0.194, na, 6.4, 0.22, 0.346, na, na, na, na, na, na, na, na, na, 0.447, na, 0.089, 0.479, 0.489, 0.243, 0.747, 1, na, 1.9, 0.552, 2.1, na, na, na, na, na and na.

Assay [2] concerns p52 (NF-kB2) nuclear translocation in HeLa cells. Kind of assay: NIK p52 Translocation Assay (non-classical NF-kB signaling). The assay is classed as cell-based. The conditions noted are these: Homo sapiens; HeLa cells, 100 ng/mL anti-lymphotoxin beta receptor antibody, 5 hours; read-out: inhibitory value (IC50) for NIK p52 Translocation Assay. On the procedure: as §1
Assay [3] concerns the target T1, nuclear factor-kappa B (NF-kB)-inducing kinase (NIK) (Homo sapiens, UniProt Q99558).
T1 construct: made in house; host or cells: baculovirus-infected insect cells
Kind of assay: NIK Enzyme Inhibition Assay (Transcreener ADP assay). The assay is classed as biochemical. The conditions noted are these: purified NIK 0.2-1 nM, 10 uM ATP, fluorescence polarization, Morrison's quadratic equation; read-out: inhibitory value (Ki) for NIK. A general note: Polarisation of emitted light reports the rotation of a fluorescent probe.

Assay [4] has as its system NF-kB signaling through NIK in human embryonic kidney 293 cells. Kind of assay: 293-NIK NF-kB-Luciferase reporter assay. It is filed as cell-based. The following applies: HEK293, 293 cells with tetracycline-inducible NIK, 1 ug/mL doxycycline, 24 hours, read-out: inhibitory value (IC50) for 293-NIK NF-kB-Luciferase activity. An excerpt:
(1) The first assay was used to profile whether a test compound can inhibit the NF-kB signally through NIK inhibition without affecting cell viability. In this assay, human embryonic kidney 293 cells was stably transfected with a tetracycline-inducible NIK DNA construct containing a cytomegalovirus promoter plus two reporter DNA constructs. One reporter encoded firefly luciferase under the control of three repeats of an NF-kB response element from the ELAM-1 gene and reflects the level of NIK activity in the cells, whereas the other reporter constitutively expressed Renilla luciferase under the control of the herpes simplex virus thymidine kinase promoter and served as a general measure of cell viability. Cells were incubated with different concentrations of compounds (0.2% DMSO final) in medium containing 1 ug/mL doxycycline and 10% tet-system approved fetal bovine serum (Clontech) for 24 hours, after which the reporters' signals were detected using the Dual Glo luciferase detection system (Promega) according to the vendor's protocol. The compounds listed in Table 1 have the corresponding inhibitory value (IC50 in micromolar) for 293-NIK NF-kB-Luciferase activity (values for compounds are presented in the same order as found in Table 1): na, 0.059, na, na, na, 0.105, 0.027, na, 20, 1.2, na, 1.8, 0.0231, 0.879, 0.0361, 0.582, na, 0.142, na, 0.403, 0.059, 0.0331, na, na, 0.0573, 1.5, na, na, 0.0722, na, na, 0.589, 12.7, 3.7, 14.9, na, 0.707, 1, 0.0311, 0.332, 0.309, 0.0142, 0.051, 2.8, 0.129, na, na, 1.5, na, na, na, 1.3, 0.062, 20, 0.31, 0.104, 0.091, 0.037, 0.085, 0.279, na, 0.305, 0.064, 0.332, 0.133, 0.168, 0.217, 0.553, na and na.
In general terms: A reporter such as luciferase makes a cellular process visible.

Molecules are shown by their SMILES.

What is called IC50 is the concentration at which inhibition is half-maximal. The Ki is the dissociation constant of the complex between target and ligand, obtained from inhibition or displacement.

T1 sequence (Q99558 whole entry): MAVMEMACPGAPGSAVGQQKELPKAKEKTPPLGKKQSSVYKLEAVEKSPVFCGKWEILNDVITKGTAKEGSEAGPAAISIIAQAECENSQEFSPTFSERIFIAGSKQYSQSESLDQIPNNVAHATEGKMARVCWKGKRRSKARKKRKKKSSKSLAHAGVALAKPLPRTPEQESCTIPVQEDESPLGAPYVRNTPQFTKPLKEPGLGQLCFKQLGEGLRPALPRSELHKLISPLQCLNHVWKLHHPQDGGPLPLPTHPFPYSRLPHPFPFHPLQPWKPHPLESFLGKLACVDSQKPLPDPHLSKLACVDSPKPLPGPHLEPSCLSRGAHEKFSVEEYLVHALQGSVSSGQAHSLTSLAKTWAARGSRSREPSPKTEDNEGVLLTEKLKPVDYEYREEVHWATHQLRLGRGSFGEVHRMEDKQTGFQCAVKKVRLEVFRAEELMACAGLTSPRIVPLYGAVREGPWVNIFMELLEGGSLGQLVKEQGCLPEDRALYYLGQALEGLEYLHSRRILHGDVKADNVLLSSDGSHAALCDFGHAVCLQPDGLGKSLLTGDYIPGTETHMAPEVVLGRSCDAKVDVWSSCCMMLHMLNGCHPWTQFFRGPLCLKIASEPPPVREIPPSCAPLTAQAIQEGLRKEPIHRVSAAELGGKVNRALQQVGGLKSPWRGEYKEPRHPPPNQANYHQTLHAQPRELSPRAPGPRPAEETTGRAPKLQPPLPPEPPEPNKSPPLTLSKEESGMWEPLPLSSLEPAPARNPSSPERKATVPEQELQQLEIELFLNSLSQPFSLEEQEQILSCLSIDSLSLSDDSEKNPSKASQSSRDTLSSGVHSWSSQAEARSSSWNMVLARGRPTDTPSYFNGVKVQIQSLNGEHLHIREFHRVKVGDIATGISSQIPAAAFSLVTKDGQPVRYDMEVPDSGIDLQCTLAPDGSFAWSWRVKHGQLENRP

As for `Cc1nn(-c2ccnc(N)n2)c2cc(C#CC(C)(O)c3nccs3)ccc12` (stereo not shown) [Example T1-13, 4-(1-(2-aminopyrimidin-4-yl)-3-methyl-1H-indazol-6-yl)-2-(thiazol-2-yl)but-3-yn-2-ol], the figures for the IC50 in assay [1], in assay [2] and in assay [4] were 129 nM, 77 nM and 23.1 nM, respectively. The inhibition constant (Ki) in assay [3] came to 0.262 nM.

In the case of `CC(O)(C#Cc1ccc2nc(C3CC3)n(-c3ccnc(N)n3)c2c1)c1nccs1` (stereo not shown) [Example T1-14, 4-(1-(2-aminopyrimidin-4-yl)-2-cyclopropyl-1H-benzo[d]imidazol-6-yl)-2-(thiazol-2-yl) but-3-yn-2-ol], the concentration for half-maximal inhibition (IC50) was determined as 7600 nM in assay [1], 3400 nM in assay [2] and 879 nM in assay [4]. The Ki in assay [3] stood at 6.9 nM.

Consider `CC1(C(=O)Nc2cnc(N)nc2-n2ncc3ccc(C#CC(C)(O)c4nccs4)cc32)COC1` (stereo not shown) [Example T1-16, N-(2-amino-4-(6-(3-hydroxy-3-(thiazol-2-yl)but-1-ynyl)-1H-indazol-1-yl)pyrimidin-5-yl)-3-methyloxetane-3-carboxamide], for which the IC50 in assay [1] is 3400 nM; in assay [2] it was 518 nM; in assay [4] it was 582 nM. Besides, the inhibitory constant (Ki) in assay [3] came out at 27 nM.

`CC(O)(C#Cc1ccc2c(CN3CCOCC3)nn(-c3ccnc(N)n3)c2c1)c1nccs1` (stereo not shown) [Example T1-18, 4-(1-(2-aminopyrimidin-4-yl)-3-(morpholinomethyl)-1H-indazol-6-yl)-2-(thiazol-2-yl) but-3-yn-2-ol]: the IC50 was found to be 518 nM in assay [1], 59 nM in assay [2] and 142 nM in assay [4]. The Ki in assay [3] worked out at 1.7 nM.

As for `CC(C)(O)C#Cc1ccc2[nH]c(=O)n(-c3ccnc(N)n3)c2c1` [Example T1-20, 1-(2-aminopyrimidin-4-yl)-6-(3-hydroxy-3-methylbut-1-ynyl)-1H-benzo[d]imidazol-2(3H)-one], the results for the concentration for half-maximal inhibition (IC50) in assay [1], in assay [2] and in assay [4] were 59 nM, 127 nM and 403 nM, respectively. The inhibition constant Ki in assay [3] stood at 49 nM.

With `CN(C)C(=O)c1nn(-c2ccnc(N)n2)c2cc(C#CC(C)(O)c3nccs3)ccc12` (stereo not shown) [Example T1-29, 1-(2-aminopyrimidin-4-yl)-6-(3-hydroxy-3-(thiazol-2-yl)but-1-ynyl)-N,N-dimethyl-1H-indazole-3-carboxamide], the half-maximal inhibitory concentration (IC50) in assay [1] was 275 nM; in assay [2] it was 72.7 nM; in assay [4], 72.2 nM. Moreover, in assay [3], the Ki was determined as 0.9 nM.

In the case of `CC(O)(C#Cc1cc2c(cc1F)ncn2-c1ccnc(N)n1)c1nccs1` (stereo not shown) [Example T1-39, 4-(1-(2-aminopyrimidin-4-yl)-5-fluoro-1H-benzo[d]imidazol-6-yl)-2-(thiazol-2-yl)but-3-yn-2-ol], the IC50 amounted to 194 nM in assay [1], 220 nM in assay [2] and 31.1 nM in assay [4]. In addition, the Ki in assay [3] turned out to be 0.25 nM.

As to `CN(C)C(=O)c1nn(-c2ccnc(N)n2)c2cc(C#CC(C)(O)c3ncco3)ccc12` (stereo not shown) [Example T1-43, 1-(2-aminopyrimidin-4-yl)-6-(3-hydroxy-3-(oxazol-2-yl)but-1-ynyl)-N,N-dimethyl-1H-indazole-3-carboxamide], the 50% inhibitory concentration (IC50) in assay [1] stood at 346 nM; in assay [4], 51 nM. Besides, the Ki in assay [3] turned out to be 0.2 nM.

These data come from patent US8901313B2, “6,5-heterocyclic propargylic alcohol compounds and uses therefor” (Genentech, Inc., priority 2011, dated 2014).
